Data from US20240425479A1, “HALO-SUBSTITUTED AMINO AZA-HETEROARYL COMPOUNDS AS INHIBITORS OF THE HAEMATOPOIETIC PROGENITOR KINASE 1 (HPK1)” (priority 2021, published 2024).

Assays:
[1] = biological target: T1, Recombinant (1-346) HPK1 (h) (Homo sapiens, UniProt Q92918); experiment: HPK1 human STE kinase enzymatic radiometric assay; type: biochemical; settings: read-out: HPK1 IC50 nM Range
T1 construct: Recombinant (1-346) HPK1 (h) is incubated with 8 mM MOPS pH 7.0
T1 sequence (Q92918 1-346): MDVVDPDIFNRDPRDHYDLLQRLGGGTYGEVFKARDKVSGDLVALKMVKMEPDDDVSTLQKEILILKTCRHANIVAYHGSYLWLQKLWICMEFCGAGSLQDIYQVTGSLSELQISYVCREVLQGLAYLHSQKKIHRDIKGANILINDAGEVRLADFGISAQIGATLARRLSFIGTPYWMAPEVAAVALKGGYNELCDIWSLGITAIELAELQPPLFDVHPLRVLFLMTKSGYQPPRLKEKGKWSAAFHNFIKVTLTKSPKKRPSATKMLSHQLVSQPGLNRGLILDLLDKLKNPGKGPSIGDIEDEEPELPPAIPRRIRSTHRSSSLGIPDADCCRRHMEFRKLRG
Outline: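 Recombinant HPK1 (1-346) incubated 40 min at RT with 0.33 mg/mL myelin basic protein and [gamma-33P]-ATP in 8 mM MOPS pH 7.0, 0.2 mM EDTA, 10 mM Mg acetate; reaction started with Mg/ATP. Stopped with 0.5% phosphoric acid, spotted on P30 filtermat, washed, scintillation counted. Compounds tested as 9-point 3-fold dilutions.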

Lck (h) = Lck (h) (Homo sapiens, UniProt P06239); experiment: Lck human STE kinase enzymatic radiometric assay; type: biochemical; settings: read-out: Lck IC50 nM Range
Chain of Lck (h) (P06239 whole entry): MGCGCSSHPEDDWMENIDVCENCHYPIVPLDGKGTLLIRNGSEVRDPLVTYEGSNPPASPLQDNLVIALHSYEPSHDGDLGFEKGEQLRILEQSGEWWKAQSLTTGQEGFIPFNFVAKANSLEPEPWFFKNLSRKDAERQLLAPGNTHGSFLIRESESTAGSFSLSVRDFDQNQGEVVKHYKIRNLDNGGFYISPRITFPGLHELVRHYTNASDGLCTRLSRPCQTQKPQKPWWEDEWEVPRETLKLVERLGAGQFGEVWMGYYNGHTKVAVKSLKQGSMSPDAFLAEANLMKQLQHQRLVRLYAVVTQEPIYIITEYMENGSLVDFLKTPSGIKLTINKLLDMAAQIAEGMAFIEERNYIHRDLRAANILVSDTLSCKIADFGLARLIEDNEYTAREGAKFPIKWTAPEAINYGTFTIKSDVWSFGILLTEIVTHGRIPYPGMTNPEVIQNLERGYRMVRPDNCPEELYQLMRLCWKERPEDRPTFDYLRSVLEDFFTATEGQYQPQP
Protocol: (b) Lck Human STE Kinase Enzymatic Radiometric Assay
Lck (h) is incubated with 50 mM Tris pH 7.5, 0.1 mM EGTA, 0.1 mM Na3VO4, 250 uM KVEKIGEGTYGVVYK (Cdc2 peptide), 10 mM MgAcetate and [gamma-33P]-ATP (specific activity and concentration as required). The reaction is initiated by the addition of the Mg/ATP mix. After incubation for 40 minutes at room temperature, the reaction is stopped by the addition of phosphoric acid to a concentration of 0.5%, 10 μL of the reaction is then spotted onto a P30 filtermat and washed four times for 4 minutes in 0.425% phosphoric acid and once in methanol prior to drying and scintillation counting. For more details on the kinase assay procedures see: Gao, Y. et. al.; Biochem J., 451 (2): 313-328, 2013.

Compound	IC50 [1] [nM]	IC50 (Lck (h)) [nM]
Nc1nc(F)c(-c2ccc(N3CCOCC3)cc2)nc1-c1ccc2c(c1)CCNC2=O [Example I-17, 6-(3-amino-5-fluoro-6-(4-morpholinophenyl)pyrazin-2-yl)-3,4-dihydroisoquinolin-1(2H)-one]	0.1 to 10	> 1000
Nc1nc(F)c(-c2ccc(C3CCOCC3)c([C@@H]3CCCN3)c2)nc1-c1ccc2c(c1)CCNC2=O [Example I-18, (S)-6-(3-amino-5-fluoro-6-(3-(pyrrolidin-2-yl)-4-(tetrahydro-2H-pyran-4-yl)phenyl)pyrazin-2-yl)-3,4-dihydroisoquinolin-1(2H)-one]	0.1 to 10	> 1000
CC(C)N1CCN(c2ccc(-c3nc(-c4ccc5c(=O)[nH]ccc5c4)c(N)nc3F)cc2)CC1 [Example I-20, 6-(3-amino-5-fluoro-6-(4-(4-isopropylpiperazin-1-yl)phenyl)pyrazin-2-yl)isoquinolin-1(2H)-one]	0.1 to 10	> 1000
CC(C)N1CCN(c2ccc(-c3nc(-c4cc(F)c5c(=O)[nH]ccc5c4)c(N)nc3F)cc2)CC1 [Example I-21, 6-(3-amino-5-fluoro-6-(4-(4-isopropylpiperazin-1-yl)phenyl)pyrazin-2-yl)-8-fluoroisoquinolin-1(2H)-one]	0.1 to 10	101 to 1000
CC(C)N1CCN(c2ccc(-c3nc(-c4cc5cc[nH]c(=O)c5cc4F)c(N)nc3F)cc2)CC1 [Example I-22, 6-(3-amino-5-fluoro-6-(4-(4-isopropylpiperazin-1-yl)phenyl)pyrazin-2-yl)-7-fluoroisoquinolin-1(2H)-one]	0.1 to 10	101 to 1000
Nc1nc(F)c(-c2ccc(N3CCN(CC4CC4)CC3)cc2)nc1-c1ccc2c(=O)[nH]ccc2c1 [Example I-23, 6-(3-amino-6-(4-(4-(cyclopropylmethyl)piperazin-1-yl)phenyl)-5-fluoropyrazin-2-yl)isoquinolin-1(2H)-one]	0.1 to 10	> 1000
Nc1nc(F)c(-c2ccc(N3CCN(CC4CC4)CC3)cc2)nc1-c1cc(F)c2c(=O)[nH]ccc2c1 [Example I-24, 6-(3-amino-6-(4-(4-(cyclopropylmethyl)piperazin-1-yl)phenyl)-5-fluoropyrazin-2-yl)-8-fluoroisoquinolin-1(2H)-one]	0.1 to 10	101 to 1000
Nc1nc(F)c(-c2ccc(N3CCN(CC4CC4)CC3)cc2)nc1-c1cc2cc[nH]c(=O)c2cc1F [Example I-25, 6-(3-amino-6-(4-(4-(cyclopropylmethyl)piperazin-1-yl)phenyl)-5-fluoropyrazin-2-yl)-7-fluoroisoquinolin-1(2H)-one]	0.1 to 10	101 to 1000
Nc1nc(F)c(-c2ccc(N3CCN(CCC4CC4)CC3)cc2)nc1-c1cc(F)c2c(c1)CCNC2=O [Example I-26, 6-(3-amino-6-(4-(4-(2-cyclopropylethyl)piperazin-1-yl)phenyl)-5-fluoropyrazin-2-yl)-8-fluoro-3,4-dihydroisoquinolin-1(2H)-one]	0.1 to 10	> 1000
CCN1CCN(c2ccc(-c3nc(-c4ccc5c(=O)[nH]ccc5c4)c(N)nc3F)cc2)CC1 [Example I-32, 6-(3-amino-6-(4-(4-ethylpiperazin-1-yl)phenyl)-5-fluoropyrazin-2-yl)isoquinolin-1(2H)-one]	0.1 to 10	> 1000
Nc1nc(F)c(-c2ccc(N3CCOCC3)cc2)nc1-c1cc(F)c2c(=O)[nH]ccc2c1 [Example I-36, 6-(3-amino-5-fluoro-6-(4-morpholinophenyl)pyrazin-2-yl)-8-fluoroisoquinolin-1(2H)-one]	0.1 to 10	> 1000
CC(C)N1CCN(c2ccc(-c3nc(-c4ccc5c(=O)[nH]cnc5c4)c(N)nc3F)cc2)CC1 [Example I-37, 7-(3-amino-5-fluoro-6-(4-(4-isopropylpiperazin-1-yl)phenyl)pyrazin-2-yl)quinazolin-4(3H)-one]	0.1 to 10	> 1000
CC(C)N1CCN(c2ccc(-c3nc(-c4ccc5c(=O)[nH]ncc5c4)c(N)nc3F)cc2)CC1 [Example I-38, 6-(3-amino-5-fluoro-6-(4-(4-isopropylpiperazin-1-yl)phenyl)pyrazin-2-yl)phthalazin-1(2H)-one]	11 to 100	> 1000
Cc1nc2cc(-c3nc(-c4ccc(N5CCN(C(C)C)CC5)cc4)c(F)nc3N)ccc2c(=O)[nH]1 [Example I-39, 7-(3-amino-5-fluoro-6-(4-(4-isopropylpiperazin-1-yl)phenyl)pyrazin-2-yl)-2-methylquinazolin-4(3H)-one]	11 to 100	> 1000
CN(C)Cc1cc(-c2nc(-c3ccc4c(=O)[nH]cc(F)c4c3)c(N)nc2F)ccc1C1CCOCC1 [Example I-42, 6-(3-amino-6-(3-((dimethylamino)methyl)-4-(tetrahydro-2H-pyran-4-yl)phenyl)-5-fluoropyrazin-2-yl)-4-fluoroisoquinolin-1(2H)-one]	0.1 to 10	> 1000
Nc1nc(F)c(-c2ccc(N3CCN(C4COC4)CC3)cc2)nc1-c1cc(F)c2c(c1)CCNC2=O [Example I-44, 6-(3-amino-5-fluoro-6-(4-(4-(oxetan-3-yl)piperazin-1-yl)phenyl)pyrazin-2-yl)-8-fluoro-3,4-dihydroisoquinolin-1(2H)-one]	0.1 to 10	> 1000
Nc1nc(F)c(-c2ccc(N3CCN(C4CCC4)CC3)cc2)nc1-c1cc2c(cc1F)C(=O)NCC2 [Example I-48, 6-(3-amino-6-(4-(4-cyclobutylpiperazin-1-yl)phenyl)-5-fluoropyrazin-2-yl)-7-fluoro-3,4-dihydroisoquinolin-1(2H)-one]	0.1 to 10	> 1000
CN(C)Cc1cc(-c2nc(-c3ccc4c(c3)CCNC4=O)c(N)nc2F)ccc1C1CCOCC1 [Example I-59, 6-(3-amino-6-(3-((dimethylamino)methyl)-4-(tetrahydro-2H-pyran-4-yl)phenyl)-5-fluoropyrazin-2-yl)-3,4-dihydroisoquinolin-1(2H)-one]	0.1 to 10	> 1000
CN(C)Cc1cc(-c2nc(-c3cc4c(cc3F)C(=O)NCC4)c(N)nc2F)ccc1C1CCOCC1 [Example I-60, 6-(3-amino-6-(3-((dimethylamino)methyl)-4-(tetrahydro-2H-pyran-4-yl)phenyl)-5-fluoropyrazin-2-yl)-7-fluoro-3,4-dihydroisoquinolin-1(2H)-one]	0.1 to 10	> 1000
Cc1c[nH]c(=O)c2ccc(-c3nc(-c4ccc(N5CCN(C(C)C)CC5)cc4)c(F)nc3N)cc12 [Example I-62, 6-(3-amino-5-fluoro-6-(4-(4-isopropylpiperazin-1-yl)phenyl)pyrazin-2-yl)-4-methylisoquinolin-1(2H)-one]	0.1 to 10	101 to 1000
CN(C)Cc1cc(-c2nc(-c3ccc4c(c3)CCNC4=O)c(N)nc2F)ccc1N1CCOCC1 [Example I-64, 6-(3-amino-6-(3-((dimethylamino)methyl)-4-morpholinophenyl)-5-fluoropyrazin-2-yl)-3,4-dihydroisoquinolin-1(2H)-one]	0.1 to 10	> 1000
CC(C)N1CCN(c2ccc(-c3nc(-c4ccc5c(=O)[nH]cc(F)c5c4)c(N)nc3F)cc2)CC1 [Example I-66, 6-(3-amino-5-fluoro-6-(4-(4-isopropylpiperazin-1-yl)phenyl)pyrazin-2-yl)-4-fluoroisoquinolin-1(2H)-one]	0.1 to 10	> 1000
